Read-outs that look alike come from different tables or passages of the source.

In general, inhibition refers to the percentage by which the read-out fell short of the control. As usually defined, the IC50 is the concentration needed to halve the response being measured. One may read the Ki as the equilibrium dissociation constant of an inhibitor or competing ligand from its target.

The test system of one data set is SAM synthetase. The following applies: cited from earlier work.
The subject of data set [1] is vaccinia virion mRNA(guanine-7)methyltransferase. The following applies: 100 μM; cited from earlier work.
The next data set has as its system SAH hydrolase. The settings on record: cited from earlier work; for Ki: De Clercq & Cools (1985).
Another data set concerns SAHH hydrolase. The following applies: cited from earlier work.
Data set [2] has as its system RNA methyltransferase from Streptomyces antibioticus. The settings on record: 100 μM; cited from earlier work.
The subject of a further data set is methyl transfer from SAM. The following applies: cited from earlier work.
Data set [3] deals with tumor-derived methionine adenosyltransferases. The following applies: cited from earlier work.
The subject of a further data set is tRNA methylases. The following applies: cited from earlier work.
For data set [4] the following is noted: mice, cited from earlier work.
In the next data set the test system is GSH. The settings on record: cited from earlier work; for reduction of GSH levels: 0.2 mmol/kg (S) and 0.4 mmol/kg (S,R), liver, kidney and pancreas; for depletion of GSH: 0.2 mg/kg.
Another data set relates to L1210 cells. The settings on record: absence of polyamine depletion; cited from earlier work.
The subject of another data set is adenosine deaminase. The following applies: cited from earlier work.
The test system of data set [5] is vesicular stomatitis virus. The settings on record: primary rabbit kidney cells; cited from earlier work.
For another data set, the system named is human retrovirus. The following applies: cited from earlier work.
The subject of data set [6] is S. aureus 27660 (erythromycin resistant). Format: cell-based. The following applies: in combination with erythromycin.

Take `NC1(C(=O)O)CC2CCC2C1` (centres unmarked) [3-aminobicyclo[3.2.0]heptane-3-carboxylic acid]: the SAM synthetase inhibition result in the data set on SAM synthetase was “effective inhibitors”.
Consider `Nc1nccc2c1ncn2[C@@H]1O[C@H](CSCC[C@H](N)C(=O)O)[C@@H](O)[C@H]1O` [S-(3-deazaadenosyl)-L-homocysteine], for which the inhibition in data set [1] is listed as 84%.
For `Nc1nc(F)nc2c1ncn2[C@@H]1O[C@H](CSCCC(N)C(=O)O)[C@@H](O)[C@H]1O` (some centres unmarked) [2-FSAH, 2-fluoro-S-adenosylhomocysteine], the SAH hydrolase inhibition result in the data set on SAH hydrolase is “effective inhibitor of SAHH”.
For `Nc1ncnc2c1ncn2[C@@H]1CC[C@@H](O)[C@H]1O` [DHCaA, dihydroxycyclopentanyladenine], in the data set on SAHH hydrolase, the “antiviral activity and cytotoxicity vs first generation” value was “retained antiviral activity and considerably lower cytotoxicity than their parent first generation inhibitors”.
As to `NC1(C(=O)O)CC2CC1C1CCCC21` [(1R,2R,4S) isomer of 2-amino-5,6-exo-trimethylenenorbornane-2-carboxylic acid, 2-amino-5,6-exo-trimethylenenorbornane-2-carboxylic acid], the SAM synthetase inhibition result in the data set with SAM synthetase is “effective inhibitors”.
Turning to `Nc1ncnc2c1ncn2[C@@H]1O[C@H](C[S+]([O-])CC[C@H](N)C(=O)O)[C@@H](O)[C@H]1O` (stereo partly drawn) [S-adenosyl-L-homocysteine sulfoxide], the inhibition in data set [1] is 47%.
`Nc1ncnc2c1ncn2[C@@H]1C[C@H](CSCC[C@H](N)C(=O)O)[C@@H](O)[C@H]1O` [S-aristeromycinyl-L-homocysteine]: the inhibition in [1] is 66%.
`Nc1ncnc2c1ncn2C1OC(CC2CCC(N)C(=O)N2)C(O)C1O` (centres unmarked) [cyclosinefungin]: the inhibition in [2] is listed as 50%.
As for `C[S+](CC[C@H](N)C(=O)O)C[C@H]1O[C@@H](n2cnc3c(=O)[nH]cnc32)[C@H](O)[C@@H]1O` (stereo partly drawn) [S-inosyl-L-methionine], the inhibition result in the data set with methyl transfer from SAM was “effective inhibitors”.
Turning to `CC=CC[C@H](N)C(=O)O` [L-2-amino-4-hexanoic acid], in [3], the inhibition entry is recorded as “effective inhibitors”.
6-mercaptoadenine: in the data set with tRNA methylases, the “inhibition of tRNA methylases” value was “gave inhibition that would be acceptable”.
Turning to `Nc1nc(N)c2ncn([C@@H]3C[C@H](O)[C@@H](O)[C@H]3O)c2n1` (relative stereo) [2,6-diamino-analogue], the SAH hydrolase inhibition entry in the data set on SAH hydrolase is on record as “inhibitors of SAHH”.
On to `CC[Se]CCC(N)C(=O)O` (racemic) [seleno-DL-ethionine], for which the inhibition entry in [3] is given as “effective inhibitors”.
Turning to `CN(C)c1ncnc2[nH]cnc12` [6-dimethyladenine], the “inhibition of tRNA methylases” value in the data set with tRNA methylases is “possible exceptions”.
In the case of `CC1(C)N=C(N)N=C(N)N1c1ccc(CCCCc2ccc(S(=O)(=O)F)cc2Cl)c(Cl)c1` [NSC 127755], the “s.c. toxicity (LD100)” value in data set [4] (s.c.) is at least 156 mg/kg.
Consider `CCCC[S@](=N)(=O)CC[C@H](N)C(=O)O` [L-buthionine-(S)-sulfoximine], for which, in the data set with GSH, the “reduction of GSH levels” value is given as “effective in reducing GSH levels”.
In the case of `NC1(C(=O)O)CC2CC1C2` (single isomer, unassigned; (+)) [(+)-2-aminobicyclo[2.1.1]hexane-2-carboxylic acid], the SAM synthetase inhibition entry in the data set with SAM synthetase is “most effective”. The inhibition entry in [3] is reported as “most effective”. The IC50 in the data set on L1210 cells is 5000 µM.
As to `CS/C=C\[C@H](N)C(=O)O` (stereo in doubt) [L-cis-AMTB, L-2-amino-4-methylthio-cis-but-3-enoic acid], the “inhibitory potency relative to L-cis-AMB” value in the data set with SAM synthetase is “slightly less inhibitory than L-cis-AMB”.
On to `Nc1nccc2c1ncn2[C@@H]1CC[C@@H](O)[C@H]1O` [c^3 -DHCaA, dihydroxycyclopentanyl-3-deazaadenine], for which, in the data set with SAHH hydrolase, the “antiviral activity and cytotoxicity vs first generation” value was “retained antiviral activity and considerably lower cytotoxicity than their parent first generation inhibitors”.
For `C[S+](CCCN)C[C@H]1O[C@@H](n2cnc3c(N)ncnc32)[C@H](O)[C@@H]1O` (some centres unmarked) [S-adenosyl-(5')-3-methylthio-propylamine], the inhibition result in the data set with methyl transfer from SAM is listed as “effective inhibitors”.
With `NC1(C(=O)O)CCC1` [1-aminocyclobutanecarboxylic acid], the inhibition result in data set [3] was “effective inhibitors”.
Consider `OC[C@H]1O[C@@H](n2cnc3c2N=CNC[C@H]3O)[C@H](O)[C@@H]1O` [Coformycin], for which the ADA inhibition result in the data set with adenosine deaminase is listed as “potent inhibitors of ADA”.
With `Nc1ncnc2nc[nH]c12.O=S(=O)(O)O` [adenine sulfate], the “inhibition of tRNA methylases” value in the data set with tRNA methylases is reported as “gave inhibition that would be acceptable”.
In the case of `Nc1nccc2c1ncn2[C@@H]1C[C@H](CO)[C@@H](O)[C@H]1O` [carbocyclic 3-deazaadenosine, carbocyclic-3-deazaadenosine], on SAH hydrolase, the Ki is 0.013 µM. Besides, in [5], the “minimum inhibitor concentration (50% reduction of cytopathogenicity)” value is 0.2 µg/mL. In addition, in the data set with human retrovirus, the effective inhibitory concentration is about 1.4 µg/mL.
In the case of `C[Se]CC[C@H](N)C(=O)O` [selenomethionine], the IC50 with L1210 cells is 130 µM.
For the molecule `C/C(Cl)=C/C[C@H](N)C(=O)O` [(Z)-L-2-amino-5-chloro-trans-4-hexanoic acid], the inhibition result in data set [3] was “effective inhibitors”.
As to `Nc1nccc2c1ncn2[C@@H]1C=C[C@@H](O)[C@H]1O` [c^3 -DHCeA, dihydroxycyclopentenyl-3-deazaadenine], in the data set with SAHH hydrolase, the “antiviral activity and cytotoxicity vs first generation” value was “retained antiviral activity and considerably lower cytotoxicity than their parent first generation inhibitors”.
Turning to `Nc1ncnc2c1ncn2[C@H]1C[C@H](O)[C@@H](CO)O1` [2'-deoxyadenosine], the “enhanced killing with erythromycin” value in data set [6] was “enhanced the killing”. Moreover, the SAH hydrolase inhibition result in the data set on SAH hydrolase is reported as “suicide inactivators of SAH hydrolase”.
For the molecule `CSCSC[C@H]1O[C@@H](n2cnc3c(N)ncnc32)[C@H](O)[C@@H]1O` [5'-S-methylthiomethyladenosine], the inhibition in data set [2] is reported as 65%.
With `N[C@]1(C(=O)O)C[C@H]2CC[C@@H]1C2` [(1R,2R,4S) isomer of 2-aminonorbornane-2-carboxylic acid, 2-aminonorbornane-2-carboxylic acid], the SAM synthetase inhibition entry in the data set with SAM synthetase is given as “effective inhibitors”.
For `CCCC[S@@](=N)(=O)CC[C@H](N)C(=O)O` [L-buthionine-(R)-sulfoximine], the “depletion of GSH” value is “modest depletion in the kidney” in the data set with GSH (kidney) and “did not show any significant depletion of GSH” with GSH (liver or pancreas).
With `Nc1c2nc[nH]c2nc[n+]1[O-]` [adenine-N^1 -oxide], the “inhibition of tRNA methylases” value in the data set with tRNA methylases was “gave inhibition that would be acceptable”.
Turning to `Nc1ncnc2nc[nH]c12.O=P(O)(O)O` [adenine phosphate], in the data set with tRNA methylases, the “inhibition of tRNA methylases” value is reported as “gave inhibition that would be acceptable”.
As to `Nc1ncnc2c1ncn2CC(O)C(=O)O` (racemic) [(RS)-AHPA, (R,S)-3-adenine-9-yl-2-hydroxypropanocic acid], the Ki at SAH hydrolase was 0.073 µM.
As for `NC(C(=O)O)C1CCCC1` (centres unmarked) [cyclopentaneglycine], the SAM synthetase inhibition entry with SAM synthetase is “effective inhibitors”.
`CCSCC[C@H](N)C(=O)O` [L-ethionine]: the inhibition result in data set [3] is “effective inhibitors”.
As to `Nc1ncnc2c1ncn2[C@@H]1C=C[C@@H](O)[C@H]1O` [DHCeA, dihydroxycyclopentenyladenine], the “antiviral activity and cytotoxicity vs first generation” value in the data set on SAHH hydrolase is “retained antiviral activity and considerably lower cytotoxicity than their parent first generation inhibitors”.
Take `Nc1ncnc2c1ncn2[C@@H]1O[C@H](CS(=O)(=O)CC[C@H](N)C(=O)O)[C@@H](O)[C@H]1O` [S-adenosyl-L-homocysteine sulfone]: the inhibition in data set [1] is reported as 40%.
As for `CNc1ncnc2[nH]cnc12` [6-methyladenine], the “inhibition of tRNA methylases” value in the data set on tRNA methylases is “gave inhibition that would be acceptable”.
For `CCCCS(=N)(=O)CC[C@H](N)C(=O)O` (stereo partly drawn) [L-buthionine-(S,R)-sulfoximine], the “reduction of GSH levels” value in the data set on GSH is recorded as “effective in reducing GSH levels”.
`Nc1ncnc2c1ncn2C[C@H](O)CO` [(S)-DHPA, 9(S)-(2,3-dihydroxypropyl)adenine]: on SAH hydrolase, the Ki is 1.4 µM. For the same molecule, in [5], the “minimum inhibitor concentration (50% reduction of cytopathogenicity)” value is 20 µg/mL. Further, the effective inhibitory concentration result with human retrovirus is recorded as “about 60 μg/ml”.
Turning to `CC(C)COC(=O)C(O)Cn1cnc2c(N)ncnc21` (racemic) [(RS)-AHPA isobutyl ester], the “minimum inhibitor concentration (50% reduction of cytopathogenicity)” value in [5] is 2 µg/mL. The effective inhibitory concentration with human retrovirus is about 1.2 µg/mL. Besides, the activity index in the data set with human retrovirus (in vitro cytotoxicity vs activity) was 80.
Take `Nc1ncnc2c1ncn2[C@@H]1O[C@H](CO)[C@@H](O)[C@@H]1O` [Ara-A, 9-β-arabinofuranosyladenine]: the “enhanced killing with erythromycin” value in data set [6] was “enhanced the killing”. Besides, the SAH hydrolase inhibition entry in the data set on SAH hydrolase is given as “suicide inactivators of SAH hydrolase”. The “activity relative to 2'-deoxyadenosine” value in the data set with SAH hydrolase (suicide inactivation of SAH hydrolase) is reported as “twice as active as 2'-deoxyadenosine”. Also, the LD50 is listed as 4,677 mg/kg in data set [4] (i.p.) and 7,950 mg/kg in [4] (orally).
Turning to `NC1(C(=O)O)CCCCC1` [1-aminocyclohexanecarboxylic acid], in [3], the inhibition entry is given as “effective inhibitors”.
As to 6-methoxyadenine, the “inhibition of tRNA methylases” value with tRNA methylases was “possible exceptions”.

(Values after patent US5872104A, “Combinations and methods for reducing antimicrobial resistance” (Oridigm Corporation, priority 1994, dated 1999).)
